# Entries after “also recorded” stand apart in the source; their conditions may differ.
# Columns and labels:
# [1] = tested on: lentivirus; assay: lentivirus inactivation by photosensitizer and UV light
# [2] = tested on: recombinant adeno-associated virus (AAV); settings: reagent alone, room temperature, 2 hours
# [3] = tested on: recombinant AAV; assay: AAV particle size by dynamic light scattering; assay type: physicochemical
# [4] = rats
# [5] = tested on: MERS CoV; settings: riboflavin 50 micromolar and UV light, six minutes, plasma; cited from earlier work
# [6] = tested on: SARS-CoV-2; assay: SARS-CoV-2 inactivation in Mirasol device; settings: 50 μM riboflavin
smiles,measurement,setting,value
Cc1cc2nc3c(=O)[nH]c(=O)nc-3n(C[C@H](O)[C@H](O)[C@H](O)CO)c2cc1C [riboflavin],time to complete inactivation of lentivirus,[1]; 50 μM riboflavin in the presence of UV light,≤ 20 min
same,infectious titer of recombinant AAV,[2],reduce the infectious titer
same,average hydrodynamic radius of viral aggregates,"[3]; 50 μM riboflavin and UV light, later time points",greater than 60 nm
same,toxicity of residual riboflavin remaining after viral inactivation,[4],does not induce toxicity
same,MERS coronavirus titers,[5],reduction
same,Log Reduction in viral titer,"[6]; 100 Joules UV in 19 seconds, 100 mLs, limit of detection 1.0 Log per mL",greater than 4.2 Log
same,inactivation of SARS-CoV-2,"[6]; about 100 Joules UV, to the limit of detection",Complete inactivation; also recorded: completely inactivated
O=c1ccc2cc3ccoc3cc2o1 [psoralen],time to inactivation of lentivirus,[1]; 1.5 mM psoralen and UV light,approximately 2 hours
same,infectious titer of recombinant AAV,[2],reduce the infectious titer
same,change in particle size distribution,[3]; 1.5 mM psoralen and UV light,No significant change in particle size distribution

# Source: patent publication US12605442B2 (priority 2020, dated 2026)
